How the values were obtained:
[1] = biological target: T1, DPP IV (Mus musculus, UniProt P28843); assay: DPP IV inhibitory activity in vivo: DPP IV activity in plasma of ICR mouse after single oral dose; conditions: oral 3 mg/kg, compared with Alogliptin and Vildagliptin (LAF237), FIG. 1-6
T1 construct: from tissue; host or cells: plasma of ICR mouse
Experimental: Animals: ICR mouse (8-10 weeks old; sex: male; 25 g-30 g of body weight, purchased from Shanghai SLAC Laboratory Animal Center).
Meanwhile the solvent group was used as blank control. The blood was taken from orbital venous plexus of the mouse before administration, and 30, 60, 2 h, 4 h, 6 h, 8 h and […] after administration, respectively and loaded into Eppendorf tube (Qizhong Industrial (Shanghai) co., Ltd.) treated by anticoagulant. The plasma was obtained by centrifugation and DPP IV activity was determined.

[2] = tested on: normal ICR mouse; assay: Oral glucose tolerance test (OGTT), acute hypoglycemic effect of single oral dose; format: in vivo; conditions: single dose 3 mg/kg by gavage, glucose 2.5 g/kg after 6 hours, FIGS. 7-10
Experimental: Acute hypoglycemic effect of single dose through mouth on the normal ICR mouse
Animal: ICR mouse (8-10 weeks old, sex: male, weight: 25-30 g, purchased from Shanghai SLAC Laboratory Animal Center).
1. Two days before the experiment, the food consumption was recorded and the daily food consumption of each animal was calculated;
2. The animals fasted overnight (⅓ of daily food consumption was provided, about 2 g);
3. The blood glucose was measured on the second day.
4. The medicament was administrated through gavage (1 mouse/min). After 6 hours, the blood glucose was measured. Glucose was administrated through gavage according to the body weight (2.5 g/kg). The blood glucose value was monitored at 30 min, 60 min, 90 min, and 120 min after administration.

[3] = biological target: dipeptidyl peptidase 7 (DPP 7) (Homo sapiens, UniProt Q9UHL4); assay: DPP 7 activity screening; format: biochemical; conditions: N.I. = No Inhibition
In short: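 Sample dissolved in DMSO, final DMSO kept at a level not affecting activity; tested at a single concentration from preliminary screening (e.g. 20 μg/mL). Dose-response data fitted to sigmoidal variable-slope model with bottom and top fixed at 0 and 100.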

[4] = biological target: T2, FAP (Homo sapiens, UniProt Q12884); assay: FAP inhibition (Table 1); format: biochemical; conditions: N.I. = No Inhibition
T2 sequence (Q12884 1-760): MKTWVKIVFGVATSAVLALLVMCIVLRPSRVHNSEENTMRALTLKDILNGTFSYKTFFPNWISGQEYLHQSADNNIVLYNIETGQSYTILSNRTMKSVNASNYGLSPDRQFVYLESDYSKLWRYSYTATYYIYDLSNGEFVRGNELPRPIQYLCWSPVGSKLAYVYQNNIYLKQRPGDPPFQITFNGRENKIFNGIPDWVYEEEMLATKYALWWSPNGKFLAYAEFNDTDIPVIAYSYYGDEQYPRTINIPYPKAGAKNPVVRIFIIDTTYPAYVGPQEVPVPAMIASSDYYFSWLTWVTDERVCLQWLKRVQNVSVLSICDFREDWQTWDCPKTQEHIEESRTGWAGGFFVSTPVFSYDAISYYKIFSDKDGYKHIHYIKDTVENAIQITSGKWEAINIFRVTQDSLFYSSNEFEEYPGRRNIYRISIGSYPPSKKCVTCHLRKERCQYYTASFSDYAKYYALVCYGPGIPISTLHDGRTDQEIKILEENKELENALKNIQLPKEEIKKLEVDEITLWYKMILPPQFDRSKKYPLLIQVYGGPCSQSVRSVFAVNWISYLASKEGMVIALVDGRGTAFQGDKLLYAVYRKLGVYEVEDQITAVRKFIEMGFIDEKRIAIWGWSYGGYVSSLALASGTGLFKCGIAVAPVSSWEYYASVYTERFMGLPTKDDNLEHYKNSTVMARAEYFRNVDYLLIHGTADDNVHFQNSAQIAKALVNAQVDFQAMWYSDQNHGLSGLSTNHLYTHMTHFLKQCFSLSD

[5] = biological target: T3, human DPP IV (Homo sapiens, UniProt P27487); assay: DPP IV activity screening (Ala-Pro-AMC fluorescence); format: biochemical
T3 construct: extracellular fragment of protease DPP IV (aa29-766); made in house; host or cells: baculovirus expression system Bac-to-Bac
T3 sequence (P27487 29-766): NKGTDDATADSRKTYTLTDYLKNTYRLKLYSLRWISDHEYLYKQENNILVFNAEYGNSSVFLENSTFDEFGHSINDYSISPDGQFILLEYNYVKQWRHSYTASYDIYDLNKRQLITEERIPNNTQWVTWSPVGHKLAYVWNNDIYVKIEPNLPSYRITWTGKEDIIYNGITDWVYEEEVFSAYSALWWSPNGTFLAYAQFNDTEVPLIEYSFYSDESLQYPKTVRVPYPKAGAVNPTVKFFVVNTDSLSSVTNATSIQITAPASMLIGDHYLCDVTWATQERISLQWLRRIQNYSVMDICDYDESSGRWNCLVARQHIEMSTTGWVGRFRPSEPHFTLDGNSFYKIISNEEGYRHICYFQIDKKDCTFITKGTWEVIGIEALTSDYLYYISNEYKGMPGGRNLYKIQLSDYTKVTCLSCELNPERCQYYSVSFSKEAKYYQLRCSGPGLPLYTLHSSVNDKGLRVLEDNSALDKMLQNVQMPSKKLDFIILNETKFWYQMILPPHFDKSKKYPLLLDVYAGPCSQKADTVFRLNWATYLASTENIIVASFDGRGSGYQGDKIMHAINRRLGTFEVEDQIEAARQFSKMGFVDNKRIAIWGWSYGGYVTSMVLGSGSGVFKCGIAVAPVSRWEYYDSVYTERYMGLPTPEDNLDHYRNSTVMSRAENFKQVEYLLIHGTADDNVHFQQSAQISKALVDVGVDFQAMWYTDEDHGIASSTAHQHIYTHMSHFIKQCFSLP
In short: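 DPP IV activity is taken as the linear rate of fluorescence change at 460 nm. Samples are dissolved in DMSO and screened at a single concentration (e.g. 20 μg/mL). Dose-response data are fit to a variable-slope sigmoidal model with bottom and top fixed at 0 and 100.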

[6] = biological target: T4, Human DPP 9 (Homo sapiens, UniProt Q86TI2); assay: DPP 9 activity screening (Ala-Pro-AMC fluorescence); format: biochemical; conditions: N.I. = No Inhibition
T4 construct: made in house; host or cells: insect cells, baculovirus Bac-to-Bac
T4 sequence (Q86TI2 whole entry): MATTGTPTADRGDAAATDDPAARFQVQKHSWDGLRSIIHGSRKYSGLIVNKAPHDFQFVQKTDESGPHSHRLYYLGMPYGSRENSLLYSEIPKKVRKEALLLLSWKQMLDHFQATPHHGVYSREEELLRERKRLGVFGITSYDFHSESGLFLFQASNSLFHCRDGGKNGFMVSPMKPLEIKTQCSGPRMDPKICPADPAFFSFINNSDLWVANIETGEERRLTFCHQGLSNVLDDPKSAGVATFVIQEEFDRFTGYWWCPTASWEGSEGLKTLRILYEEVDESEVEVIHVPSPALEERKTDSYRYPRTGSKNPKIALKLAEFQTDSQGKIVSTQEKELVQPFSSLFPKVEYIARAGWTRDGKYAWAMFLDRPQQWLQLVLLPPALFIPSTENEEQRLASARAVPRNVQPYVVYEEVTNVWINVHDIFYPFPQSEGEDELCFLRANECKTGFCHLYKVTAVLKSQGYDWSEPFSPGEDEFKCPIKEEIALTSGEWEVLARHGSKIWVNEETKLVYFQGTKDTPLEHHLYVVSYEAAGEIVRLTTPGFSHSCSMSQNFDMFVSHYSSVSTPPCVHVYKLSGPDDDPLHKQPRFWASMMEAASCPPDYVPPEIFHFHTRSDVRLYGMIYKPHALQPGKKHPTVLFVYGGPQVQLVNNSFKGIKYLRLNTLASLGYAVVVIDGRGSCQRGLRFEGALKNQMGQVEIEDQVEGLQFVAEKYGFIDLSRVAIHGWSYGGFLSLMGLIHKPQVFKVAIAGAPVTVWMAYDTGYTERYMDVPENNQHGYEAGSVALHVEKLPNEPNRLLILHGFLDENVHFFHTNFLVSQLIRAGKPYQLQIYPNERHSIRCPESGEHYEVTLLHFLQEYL
In short: (§1)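 Insect-cell baculovirus-expressed human enzymes hydrolyse Ala-Pro-AMC; AMC release monitored kinetically as fluorescence rate (ex 355/em 460 nm). Primary screen at a single concentration (e.g. 20 μg/mL); dose–response fitted to variable-slope sigmoid with bottom/top fixed at 0 and 100.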

[7] = biological target: T5, human DPP 8 (Homo sapiens, UniProt Q6V1X1); assay: DPP 8 activity screening (Ala-Pro-AMC fluorescence); format: biochemical; conditions: N.I. = No Inhibition
T5 construct: made in house; host or cells: insect cells, baculovirus Bac-to-Bac
T5 sequence (Q6V1X1 whole entry): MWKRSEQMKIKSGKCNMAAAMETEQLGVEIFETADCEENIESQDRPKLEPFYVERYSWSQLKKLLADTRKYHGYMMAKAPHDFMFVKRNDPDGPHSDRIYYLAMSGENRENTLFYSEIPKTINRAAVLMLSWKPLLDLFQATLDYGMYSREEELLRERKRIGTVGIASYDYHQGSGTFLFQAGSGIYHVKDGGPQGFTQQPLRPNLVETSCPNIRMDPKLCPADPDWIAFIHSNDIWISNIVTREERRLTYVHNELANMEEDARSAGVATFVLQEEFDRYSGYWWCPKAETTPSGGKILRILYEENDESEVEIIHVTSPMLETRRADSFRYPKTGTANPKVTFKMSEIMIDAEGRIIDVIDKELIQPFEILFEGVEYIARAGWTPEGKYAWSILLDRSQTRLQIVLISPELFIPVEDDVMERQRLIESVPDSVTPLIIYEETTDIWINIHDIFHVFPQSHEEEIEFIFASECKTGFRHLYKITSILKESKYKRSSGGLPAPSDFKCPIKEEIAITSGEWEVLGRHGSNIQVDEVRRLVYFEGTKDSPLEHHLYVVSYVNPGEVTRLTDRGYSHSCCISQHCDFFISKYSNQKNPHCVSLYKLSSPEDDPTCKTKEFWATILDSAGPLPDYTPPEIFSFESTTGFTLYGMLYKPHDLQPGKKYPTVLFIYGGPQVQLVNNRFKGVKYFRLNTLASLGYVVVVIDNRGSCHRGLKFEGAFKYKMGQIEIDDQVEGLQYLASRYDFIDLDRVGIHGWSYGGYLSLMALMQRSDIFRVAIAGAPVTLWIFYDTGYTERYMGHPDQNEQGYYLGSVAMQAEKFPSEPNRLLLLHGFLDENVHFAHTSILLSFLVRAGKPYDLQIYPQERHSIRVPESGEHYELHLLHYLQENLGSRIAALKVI
In short: as §1

T1 sequence (P28843 37-760 limits assumed): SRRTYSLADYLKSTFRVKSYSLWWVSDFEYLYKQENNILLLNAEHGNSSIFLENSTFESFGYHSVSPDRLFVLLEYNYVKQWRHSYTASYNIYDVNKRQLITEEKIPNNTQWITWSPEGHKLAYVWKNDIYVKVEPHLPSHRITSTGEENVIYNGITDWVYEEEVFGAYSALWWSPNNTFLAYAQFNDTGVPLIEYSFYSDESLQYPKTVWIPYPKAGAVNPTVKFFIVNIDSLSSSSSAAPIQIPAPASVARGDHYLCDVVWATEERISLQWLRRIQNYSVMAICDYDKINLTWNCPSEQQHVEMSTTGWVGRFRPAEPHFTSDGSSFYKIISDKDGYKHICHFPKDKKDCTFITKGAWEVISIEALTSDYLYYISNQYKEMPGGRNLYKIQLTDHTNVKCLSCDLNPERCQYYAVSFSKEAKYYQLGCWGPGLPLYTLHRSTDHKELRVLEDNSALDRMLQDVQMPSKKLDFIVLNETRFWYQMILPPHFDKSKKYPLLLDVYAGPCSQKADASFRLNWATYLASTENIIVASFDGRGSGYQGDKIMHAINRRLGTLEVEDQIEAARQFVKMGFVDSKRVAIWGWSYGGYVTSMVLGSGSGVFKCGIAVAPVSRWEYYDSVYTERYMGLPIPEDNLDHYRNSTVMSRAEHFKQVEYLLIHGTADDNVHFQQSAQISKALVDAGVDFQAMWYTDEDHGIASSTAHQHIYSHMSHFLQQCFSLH

SMILES | DPP IV activity of ICR mouse plasma after single dose (given as hypoglycemic ability in vivo) [1] | DPP 7 IC50 [3] | IC50 [4] | IC50 [5] | IC50 [6] | IC50 [7] | also measured
CCOC(=O)CCNC(=O)c1csc2c(=O)n(Cc3ccccc3C#N)c(N3CCC[C@@H](N)C3)nc12 [DC291041] | comparable to that of Alogliptin (3 mg), and better than that of Vildagliptin (LAF237, 15 mg) |  |  |  |  |  | 
CC(=O)OCc1cc2nc(N3CCC[C@@H](N)C3)n(Cc3ccccc3C#N)c(=O)c2s1 [DC291405] | comparable to that of Alogliptin (3 mg), and better than that of Vildagliptin (LAF237, 15 mg) |  |  |  |  |  | 
N#Cc1ccccc1Cn1c(N2CCC[C@@H](N)C2)nc2c(C#N)csc2c1=O [DC291036] |  |  |  |  |  |  | hypoglycemic ability in vivo, oral glucose tolerance test [2]: comparable to that of Alogliptin
N#Cc1ccccc1Cn1c(N2CCC[C@@H](N)C2)nc2c(C(=O)NC3CCOCC3)csc2c1=O [DC291034] |  |  |  |  |  |  | hypoglycemic ability in vivo, oral glucose tolerance test [2]: comparable to that of Alogliptin
N#Cc1ccccc1Cn1c(N2CCC[C@@H](N)C2)nc2cc(COCc3ccccc3)sc2c1=O [DC291402] | comparable to that of Alogliptin (3 mg), and better than that of Vildagliptin (LAF237, 15 mg) |  |  |  |  |  | hypoglycemic ability in vivo, oral glucose tolerance test [2]: comparable to that of Alogliptin
N#Cc1ccccc1Cn1c(N2CCC[C@@H](N)C2)nc2c(CN3CCOCC3)csc2c1=O [DC291005] | comparable to that of Alogliptin (3 mg), and better than that of Vildagliptin (LAF237, 15 mg) |  |  |  |  |  | 
N#Cc1ccccc1Cn1c(N2CCC[C@@H](N)C2)nc2cc(CO)sc2c1=O [DC291408] | comparable to that of Alogliptin (3 mg), and better than that of Vildagliptin (LAF237, 15 mg) |  |  |  |  |  | 
N#Cc1ccccc1Cn1c(N2CCC[C@@H](N)C2)nc2cc(C(=O)N3CCCCC3)sc2c1=O [DC291422] | comparable to that of Alogliptin (3 mg), and better than that of Vildagliptin (LAF237, 15 mg) |  |  |  |  |  | 
CCOC(=O)CNC(=O)c1csc2c(=O)n(Cc3ccccc3C#N)c(N3CCC[C@@H](N)C3)nc12 [DC291010] | comparable to that of Alogliptin (3 mg), and better than that of Vildagliptin (LAF237, 15 mg) |  |  |  |  |  | 
COC(=O)[C@H](Cc1ccc(O)cc1)NC(=O)c1csc2c(=O)n(Cc3ccccc3C#N)c(N3CCC[C@@H](N)C3)nc12 [Compound 62, (S)-methyl 2-(2-((R)-3-aminopiperidin-1-yl)-3-(2-cyanobenzyl)-4-oxo-3,4-dihydrothieno[3,2-d]pyrimidine-7-carboxamido)-3-(4-hydroxyphenyl)-propanoate] |  | N.I. | 37.4 µM | 0.0492 µM | 54.8 µM | 12.3 µM | 
Cc1ccc(CNC(=O)c2csc3c(=O)n(Cc4ccccc4C#N)c(N4CCC[C@@H](N)C4)nc23)cc1 [Compound 64, (R)-2-(3-aminopiperidin-1-yl)-3-(2-cyanobenzyl)-N-(4-methylbenzyl)-4-oxo-3,4-dihydrothieno[3,2-d]-pyrimidine-7-carboxamide] |  |  | 9.38 µM | 0.0332 µM | 39.7 µM | 5.81 µM | IC50 [3]: 52 µM
COC(=O)[C@H](Cc1ccccc1)NC(=O)c1csc2c(=O)n(Cc3ccccc3C#N)c(N3CCC[C@@H](N)C3)nc12 [Compound 67, (S)-methyl 2-(2-((R)-3-aminopiperidin-1-yl)-3-(2-cyanobenzyl)-4-oxo-3,4-dihydrothieno[3,2-d]pyrimidine-7-carboxamido)-3-phenylpropanoate] |  | N.I. | 28.1 µM | 0.0137 µM | 53 µM | 24.9 µM | 
CC(C)CNC(=O)c1cc2nc(N3CCC[C@@H](N)C3)n(Cc3ccccc3C#N)c(=O)c2s1 [Compound 116, (R)-2-(3-aminopiperidin-1-yl)-3-(2-cyanobenzyl)-N-isobutyl-4-oxo-3,4-dihydrothieno[3,2-d]pyrimidine-6-carboxamide] |  | N.I. | 126 µM | 0.0186 µM |  | 95.3 µM | DPP 9 IC50 [6]: N.I.
COCCNC(=O)c1cc2nc(N3CCC[C@@H](N)C3)n(Cc3ccccc3C#N)c(=O)c2s1 [Compound 111, (R)-2-(3-aminopiperidin-1-yl)-3-(2-cyanobenzyl)-N-(2-methoxyethyl)-4-oxo-3,4-dihydrothieno[3,2-d]-pyrimidine-6-carboxamide] |  | N.I. |  | 0.0189 µM | 131 µM | 112 µM | FAP IC50 [4]: N.I.
CC(C)NC(=O)c1csc2c(=O)n(Cc3ccccc3C#N)c(N3CCC[C@@H](N)C3)nc12 [Compound 72, (R)-2-(3-aminopiperidin-1-yl)-3-(2-cyanobenzyl)-N-isopropyl-4-oxo-3,4-dihydrothieno[3,2-d]pyrimidine-7-carboxamide] |  | N.I. | 39.4 µM | 0.0151 µM | 149 µM | 30.1 µM | 
N#Cc1ccccc1Cn1c(N2CCC[C@@H](N)C2)nc2cc(C(=O)NCc3ccccc3F)sc2c1=O [Compound 109, (R)-2-(3-aminopiperidin-1-yl)-3-(2-cyanobenzyl)-N-(2-fluorobenzyl)-4-oxo-3,4-dihydrothieno[3,2-d]pyrimidine-6-carboxamide] |  | N.I. | 101 µM | 0.0156 µM | 91.8 µM | 62.1 µM | 

— patent US9045491B2, “Thienyl [3,2-D] pyrimidin-4-one compounds, preparation method, pharmaceutical compositions and use thereof” (SHANGHAI INSTITUTE OF MATERIA MEDICA, CHINESE ACADEMY OF …, priority 2011, dated 2015)
